Test results taken from patent US20240408169A1 (priority 2023, published 2024).
Where two headings read alike, the source gives them in different places. *1 amine or outer side, *2 acyl side, *3 side chain or, on linkers, in order; H or OH if unused. Where a SMILES comes first, the peptide text is derived from it. Bridges are numbered along the chain shown (N, C = ends). [ ]: non-standard residue; d: D form. The star is where a group is joined. NMePhe(2-(4-MorPh),5-Cl) = CN[C@@H](Cc1cc(Cl)ccc1-c1ccc(N2CCOCC2)cc1)C(=O)O; X121 = C[C@@H]1CN(c2ccc(-c3ccc(Cl)cc3C[C@@H](C(=O)[*:2])N(C)[*:1])cc2)CCO1; X144 = CN([C@@H](Cc1cc(Cl)ccc1-c1ccc(N2CC(C)(F)C2)nc1)C(=O)[*:2])[*:1]; NMe3Pal(2-OiBu,5-Cl) = CN[C@@H](Cc1cc(Cl)cnc1OCC(C)C)C(=O)O; NMehhhLys(Me) = CN([C@@H](CCCCCCCN(C)[*:3])C(=O)[*:2])[*:1]; X156 = CN([C@@H](Cc1cc(Cl)cc2ccccc12)C(=O)[*:2])[*:1]; X143 = CN([C@@H](Cc1cc(F)cc2cccnc12)C(=O)[*:2])[*:1]; cBuCO(3,3-F2-1-CF3) = O=C(C1(C(F)(F)F)CC(F)(F)C1)*; X25 = CCOc1ncc(Cl)cc1C[C@@H](C(=O)[*:2])N(C)[*:1]; X173 = CN([C@@H](Cc1cc(Cl)cs1)C(=O)[*:2])[*:1]; X182 = N#Cc1ccc(CC[C@H](N[*:1])C(=O)[*:2])cn1; Pro(trans-4-F) = O=C(O)[C@@H]1C[C@@H](F)CN1; Gly(cPr) = N[C@H](C(=O)O)C1CC1

Assays:
WI-38 cells = experiment: MTT proliferation assay, WI-38; assay type: cell-based; conditions: 3 days compound exposure, 1:3 serial dilution starting at 10 μM;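 further: Eight- or ten-point dilution series, with exposure length chosen to span about three to four cell doublings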
OVCAR3 cells = experiment: MTT proliferation assay, OVCAR3; assay type: cell-based; conditions: 5 days compound exposure, 1:3 serial dilution starting at 10 μM;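 further: compound given as an 8- or 10-point series, one day after plating, with exposure covering roughly 3-4 cell doublings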
CyclinE1/CDK2 = molecular target: T1, CyclinE1/CDK2 (Homo sapiens, UniProt P24864); experiment: Fluorescence Polarization (FP) competitive binding assay, Cyclin E1/Cdk2;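 further: readings taken after two-hour equilibration at room temperature in HEPES buffer with NaCl, DTT, NP-40 and BSA, IC50 fitted from eight-concentration serial dilution series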
T1 construct: purchased Eurofins, discovery 14-475

NCI-H1048 cells = experiment: MTT proliferation assay, NCI-H1048; assay type: cell-based; conditions: 5 days compound exposure, 1:3 serial dilution starting at 10 μM;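 further: Dose-response in 96-well plates over 8 or 10 concentration points, with exposure spanning 3-4 cell doublings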
CyclinB1/CDK1 = molecular target: T2, CyclinB1/CDK1 (Homo sapiens, UniProt P14635); experiment: Fluorescence Polarization (FP) competitive binding assay, Cyclin B1/Cdk1;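 further: fluorescence polarization read after equilibration at room temperature, with IC50 taken from serially diluted dose-response curves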
T2 construct: purchased Eurofins, discovery 14-450

CyclinA2/CDK2 = molecular target: T3, CyclinA2/CDK2 (Homo sapiens, UniProt P20248); experiment: Fluorescence Polarization (FP) competitive binding assay, Cyclin A2/Cdk2; conditions: 8 nM Cyclin A2/Cdk2, 2 nM FAM probe; average of 2-3 independent experiments; read-out: Cyclin A FP IC50;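 further: plates equilibrated two hours at room temperature before polarization reading, IC50 fitted from eight-concentration compound titration curves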
T3 construct: purchased CRELUX Protein Services

[1] = read-out: Cyclin B FP IC50; 10 nM Cyclin B1/Cdk1, 2 nM FAM probe; average of 2-3 independent experiments
[2] = 10 nM Cyclin E1/Cdk2, 2 nM FAM probe, average of 2-3 independent experiments, read-out: Cyclin E FP IC50
[3] = 10 nM Cyclin B1/Cdk1, 2 nM FAM probe; average of 2-3 independent experiments; read-out: Cyclin B FP IC50

Row | SMILES | GI50 (WI-38 cells) | GI50 (OVCAR3 cells) | IC50 (CyclinE1/CDK2) | GI50 (NCI-H1048 cells) | IC50 (CyclinB1/CDK1; [1]) | IC50 (CyclinE1/CDK2; [2]) | IC50 (CyclinB1/CDK1; [3]) | IC50 (CyclinA2/CDK2)
1 | CCOc1ncc(Cl)cc1C[C@H]1C(=O)N(C)CCCCCCC[C@H](N(C)C(=O)[C@@H](NC(=O)[C@@H]2C[C@@H](F)CN2C(=O)C2(C(F)(F)F)CC(F)(F)C2)C2CC2)C(=O)N[C@@H](CC(C)C)C(=O)N1C [Example 225] ({cBuCO(3,3-F2-1-CF3)}-[Pro(trans-4-F)][Gly(cPr)][NMehhhLys(Me)]L[X25]; lactam 3-C) | 8530 nM | 30 nM | 190 nM | 20 nM | 20 nM |  |  | 
2 | CC(C)COc1ncc(Cl)cc1C[C@H]1C(=O)N(C)CCCCCCC[C@H](N(C)C(=O)[C@@H](NC(=O)[C@@H]2C[C@@H](F)CN2C(=O)C2(C(F)(F)F)CC(F)(F)C2)C2CC2)C(=O)N[C@@H](CC(C)C)C(=O)N1C [Example 228] ({cBuCO(3,3-F2-1-CF3)}-[Pro(trans-4-F)][Gly(cPr)][NMehhhLys(Me)]L[NMe3Pal(2-OiBu,5-Cl)]; lactam 3-C) | 9540 nM | 80 nM | 250 nM | 60 nM | 20 nM |  |  | 
3 | CC(C)C[C@@H]1NC(=O)[C@@H](N(C)C(=O)[C@@H](NC(=O)[C@@H]2C[C@@H](F)CN2C(=O)C2(C(F)(F)F)CC(F)(F)C2)C2CC2)CCCCCCCN(C)C(=O)[C@H](Cc2cc(Cl)ccc2-c2ccc(N3CC(C)(F)C3)nc2)N(C)C1=O [Example 402] ({cBuCO(3,3-F2-1-CF3)}-[Pro(trans-4-F)][Gly(cPr)][NMehhhLys(Me)]L[X144]; lactam 3-C) |  | 10 nM |  | 40 nM |  | 960 nM | 20 nM | 20 nM
4 | CCN1CCCCCCC[C@H](N(C)C(=O)[C@@H](NC(=O)[C@@H]2C[C@@H](F)CN2C(=O)C2(C(F)(F)F)CC(F)(F)C2)C2CC2)C(=O)N[C@@H](CC(C)C)C(=O)N(C)[C@@H](Cc2cc(Cl)ccc2-c2ccc(N3CCOCC3)cc2)C1=O [Example 404] |  | 30 nM |  | 20 nM |  | 1530 nM | 20 nM | 20 nM
5 | CC(C)C[C@@H]1NC(=O)[C@@H](N(C)C(=O)[C@@H](NC(=O)[C@@H]2C[C@@H](F)CN2C(=O)C2(C(F)(F)F)CC(F)(F)C2)C2CC2)CCCCCCCN(C)C(=O)[C@H](Cc2cc(Cl)ccc2-c2ccc(N3CCO[C@H](C)C3)cc2)N(C)C1=O [Example 414] ({cBuCO(3,3-F2-1-CF3)}-[Pro(trans-4-F)][Gly(cPr)][NMehhhLys(Me)]L[X121]; lactam 3-C) |  | 10 nM |  | 10 nM |  | 940 nM | 20 nM | 30 nM
6 | CC(C)C[C@@H]1NC(=O)[C@@H](N(C)C(=O)[C@H](CCc2ccc(C#N)nc2)NC(=O)[C@@H]2C[C@@H](F)CN2C(=O)C2(C(F)(F)F)CC(F)(F)C2)CCCCCCCN(C)C(=O)[C@H](Cc2cc(Cl)ccc2-c2ccc(N3CCOCC3)cc2)N(C)C1=O [Example 416] ({cBuCO(3,3-F2-1-CF3)}-[Pro(trans-4-F)][X182][NMehhhLys(Me)]L[NMePhe(2-(4-MorPh),5-Cl)]; lactam 3-C) |  | 40 nM |  | 30 nM |  | 3980 nM | 20 nM | 40 nM
7 | CC(C)C[C@@H]1NC(=O)[C@@H](N(C)C(=O)[C@H](CCC(=O)O)NC(=O)[C@@H]2C[C@@H](F)CN2C(=O)C2(C(F)(F)F)CC(F)(F)C2)CCCCCCCN(C)C(=O)[C@H](Cc2cc(Cl)ccc2-c2ccc(N3CCOCC3)cc2)N(C)C1=O [Example 418] ({cBuCO(3,3-F2-1-CF3)}-[Pro(trans-4-F)]E[NMehhhLys(Me)]L[NMePhe(2-(4-MorPh),5-Cl)]; lactam 3-C) |  | 1150 nM |  | 1420 nM |  | 5260 nM | 20 nM | 120 nM
8 | CC(C)C[C@@H]1NC(=O)[C@@H](N(C)C(=O)[C@@H](NC(=O)[C@@H]2C[C@@H](F)CN2C(=O)C2(C(F)(F)F)CC(F)(F)C2)C2CC2)CCCCCCCN(C)C(=O)[C@H](Cc2cc(F)cc3cccnc23)N(C)C1=O [Example 423] ({cBuCO(3,3-F2-1-CF3)}-[Pro(trans-4-F)][Gly(cPr)][NMehhhLys(Me)]L[X143]; lactam 3-C) |  | 70 nM |  | 200 nM |  | 710 nM | 20 nM | 720 nM
9 | CC(C)C[C@@H]1NC(=O)[C@@H](N(C)C(=O)[C@@H](NC(=O)[C@@H]2C[C@@H](F)CN2C(=O)C2(C(F)(F)F)CC(F)(F)C2)C2CC2)CCCCCCCN(C)C(=O)[C@H](Cc2cc(Cl)cc3ccccc23)N(C)C1=O [Example 425] ({cBuCO(3,3-F2-1-CF3)}-[Pro(trans-4-F)][Gly(cPr)][NMehhhLys(Me)]L[X156]; lactam 3-C) |  | 240 nM |  | 160 nM |  | 210 nM | 20 nM | 150 nM
10 | CC(C)C[C@@H]1NC(=O)[C@@H](N(C)C(=O)[C@@H](NC(=O)[C@@H]2C[C@@H](F)CN2C(=O)C2(C(F)(F)F)CC(F)(F)C2)C2CC2)CCCCCCCN(C)C(=O)[C@H](Cc2cc(Cl)cs2)N(C)C1=O [Example 426] ({cBuCO(3,3-F2-1-CF3)}-[Pro(trans-4-F)][Gly(cPr)][NMehhhLys(Me)]L[X173]; lactam 3-C) |  | 150 nM |  | 90 nM |  | 2060 nM | 20 nM | 110 nM
